From patent US8207178B2 (priority 2007, dated 2012)
Where two headings read alike, the source gives them in different places.

How the values were obtained:
[1] = tested on: HIV-1 K103N-L100I mutant; assay: microbe, parasite or virus in culture; assay type: cell-based, human immunodeficiency virus type 1 (HIV-1)
[2] = tested on: wild type HIV-1; assay: microbe, parasite or virus in culture; assay type: cell-based, human immunodeficiency virus type 1 (HIV-1); details: Human immunodeficiency virus 1, Hela-JC53
[3] = Human immunodeficiency virus 1, HeLa, read-out: EC50 mutant K103N-L100I, mutant K103N-L100I

Cc1cc(-c2cc(F)nc(F)c2)cc(C)c1Oc1nc(Nc2ccc(C#N)cc2)nc2ccn(C)c12 [Example 4, 4-(4-(4-(2,6-Difluoropyridin-4-yl)-2,6-dimethylphenoxy)-5-methyl-5H-pyrrolo[3,2-d]pyrimidin-2-ylamino) benzonitrile]
EC50 [1, 3]: > 10 nM
EC50 [2]: 1 to 10 nM

COc1cnccc1-c1cc(C)c(Oc2nc(Nc3ccc(C#N)cc3)nc3ccn(C)c23)c(C)c1 [Example 9, 4-(4-(4-(3-Methoxypyridin-4-yl)-2,6-dimethylphenoxy)-5-methyl-5H-pyrrolo[3,2-d]pyrimidin-2-ylamino) benzonitrile]
EC50 [1, 3]: 1 to 10 nM
EC50 [2]: 1 to 10 nM

COc1cc(-c2cc(C)c(Oc3nc(Nc4ccc(C#N)cc4)nc4ccn(C)c34)c(C)c2)ccn1 [Example 10, 4-(4-(4-(2-Methoxypyridin-4-yl)-2,6-dimethylphenoxy)-5-methyl-5H-pyrrolo[3,2-d]pyrimidin-2-ylamino) benzonitrile]
EC50 [1, 3]: > 10 nM
EC50 [2]: > 10 nM

Cc1cc(-c2ccncc2Cl)cc(C)c1Oc1nc(Nc2ccc(C#N)cc2)nc2ccn(C)c12 [Example 11, 4-(4-(4-(3-Chloropyridin-4-yl)-2,6-dimethylphenoxy)-5-methyl-5H-pyrrolo[3,2-d]pyrimidin-2-ylamino) benzonitrile]
EC50 [1, 3]: < 1 nM
EC50 [2]: < 1 nM

Cc1cc(-c2cccnc2)cc(C)c1Oc1nc(Nc2ccc(C#N)cc2)nc2ccn(C)c12 [Example 12, 4-(4-(2,6-Dimethyl-4-(pyridin-3-yl)phenoxy)-5-methyl-5H-pyrrolo[3,2-d]pyrimidin-2-ylamino)benzonitrile]
EC50 [1, 3]: > 10 nM
EC50 [2]: 1 to 10 nM

Cc1cc(-c2ccoc2)cc(C)c1Oc1nc(Nc2ccc(C#N)cc2)nc2ccn(C)c12 [Example 13, 4-(4-(4-(Furan-3-yl)-2,6-dimethylphenoxy)-5-methyl-5H-pyrrolo[3,2-d]pyrimidin-2-ylamino)benzonitrile]
EC50 [1, 3]: > 10 nM
EC50 [2]: 1 to 10 nM

Cc1cc(-c2cncnc2)cc(C)c1Oc1nc(Nc2ccc(C#N)cc2)nc2ccn(C)c12 [Example 14, 4-(4-(2,6-dimethyl-4-(pyrimidin-5-yl)phenoxy)-5-methyl-5H-pyrrolo[3,2-d]pyrimidin-2-ylamino) benzonitrile]
EC50 [1, 3]: 1 to 10 nM
EC50 [2]: < 1 nM

Cc1cc(-c2ccncc2)cc(C)c1Oc1nc(Nc2ccc(C#N)cc2)nc2c(Cl)cn(C)c12 [Example 18, 4-(7-Chloro-4-(2,6-dimethyl-4-(pyridin-4-yl)phenoxy)-5-methyl-5H-pyrrolo[3,2-d]pyrimidin-2-ylamino)benzonitrile]
EC50 [1, 3]: 1 to 10 nM
EC50 [2]: 1 to 10 nM

Cc1cc(-c2ccncc2)cc(C)c1Nc1nc(Nc2ccc(C#N)cc2)nc2ccn(C)c12 [Example 19, 4-(4-(2,6-Dimethyl-4-(pyridin-4-yl)phenylamino)-5-methyl-5H-pyrrolo[3,2-d]pyrimidin-2-ylamino)benzonitrile]
EC50 [1, 3]: 1 to 10 nM
EC50 [2]: < 1 nM

COc1ncc(-c2cc(C)c(Oc3nc(Nc4ccc(C#N)cc4)nc4ccn(C)c34)c(C)c2)cn1 [Example 20, 4-(4-(4-(2-Methoxypyrimidin-5-yl)-2,6-dimethylphenoxy)-5-methyl-5H-pyrrolo [3,2-d]pyrimidin-2-ylamino)benzonitrile]
EC50 [1, 3]: 1 to 10 nM
EC50 [2]: < 1 nM

Cc1cc(-c2c(C)nn(C)c2C)cc(C)c1Oc1nc(Nc2ccc(C#N)cc2)nc2ccn(C)c12 [Example 21]
EC50 [1, 3]: > 10 nM
EC50 [2]: 1 to 10 nM

Cc1cc(-c2ccc(N(C)C)cc2)cc(C)c1Oc1nc(Nc2ccc(C#N)cc2)nc2ccn(C)c12 [Example 22, 4-(4-(4′-(Dimethylamino)-3,5-dimethylphenyl-4-yloxy)-5-methyl-5H-pyrrolo[3,2-d]pyrimidin-2-ylamino)benzonitrile]
EC50 [1, 3]: > 10 nM
EC50 [2]: 1 to 10 nM

Cc1cc(-c2ccncc2C#N)cc(C)c1Oc1nc(Nc2ccc(C#N)cc2)nc2ccn(C)c12 [Example 23, 4-(4-(2-(4-Cyanophenylamino)-5-methyl-5H-pyrrolo[3,2-d]pyrimidin-4-yloxy)-3,5-dimethyl-phenyl)nicotinonitrile]
EC50 ([1]; read-out: EC50 mutant K103N-L100I, mutant K103N-L100I): > 10 nM
EC50 [2]: < 1 nM

Cc1cc(-c2ccnn2C)cc(C)c1Oc1nc(Nc2ccc(C#N)cc2)nc2ccn(C)c12 [Example 25, 4-(4-(2,6-Dimethyl-4-(1-methyl-1H-pyrazol-5-yl)phenoxy)-5-methyl-5H-pyrrolo[3,2-d]pyrimidin-2-ylamino)benzonitrile]
EC50 [1, 3]: < 1 nM
EC50 [2]: < 1 nM

Cc1cc(-c2ccc3nonc3c2)cc(C)c1Oc1nc(Nc2ccc(C#N)cc2)nc2ccn(C)c12 [Example 26, 4-(4-(4-(Benzo-[c][1,2,5]oxadiazol-5-yl)-2,6-dimethylphenoxy)-5-methyl-5H-pyrrolo[3,2-d]pyrimidin-2-ylamino) benzonitrile]
EC50 [1, 3]: 1 to 10 nM
EC50 [2]: 1 to 10 nM

Cc1cc(-c2ccc[nH]2)cc(C)c1Oc1nc(Nc2ccc(C#N)cc2)nc2ccn(C)c12 [Example 27, 4-(4-(2,6-Dimethyl-4-(1H pyrrol-2-yl)phenoxy)-5-methyl-5H-pyrrolo[3,2-d]pyrimidin-2-ylamino) benzonitrile]
EC50 [1, 3]: > 10 nM
EC50 [2]: < 1 nM

Cc1cc(-c2cnc(N(C)C)nc2)cc(C)c1Oc1nc(Nc2ccc(C#N)cc2)nc2ccn(C)c12 [Example 28]
EC50 [1, 3]: > 10 nM

Cc1cc(-c2cnc(C#N)nc2)cc(C)c1Oc1nc(Nc2ccc(C#N)cc2)nc2ccn(C)c12 [Example 30, 5-(4-(2-(4-Cyanophenylamino)-5-methyl-5H-pyrrolo[3,2-d]pyrimidin-4-yloxy)-3,5-dimethylphenyl)pyrimidine-2-carbonitrile]
EC50 [1, 3]: < 1 nM
EC50 [2]: < 1 nM

Cc1cc(-c2ccncc2C#N)cc(C)c1Oc1nc(Nc2ccc(C#N)cc2)nc2c(Cl)cn(C)c12 [Example 31, 4-(4-(7-Chloro-2-(4-cyanophenylamino)-5-methyl-5H-pyrrolo[3,2-d]pyrimidin-4-yloxy)-3,5-dimethyl-phenyl)nicotinonitrile]
EC50 [1, 3]: < 1 nM
EC50 [2]: < 1 nM

Cc1cc(-c2cn[nH]c2)cc(C)c1Oc1nc(Nc2ccc(C#N)cc2)nc2c(Cl)cn(C)c12 [Example 32, 4-(7-Chloro-4-(2,6-dimethyl-4-(1H-pyrazol-4-yl)phenoxy)-5-methyl-5H-pyrrolo[3,2-d]pyrimidin-2-ylamino)benzonitrile]
EC50 [1, 3]: > 10 nM
EC50 [2]: 1 to 10 nM

Cc1cc(-c2cccc(N(C)C)c2)cc(C)c1Oc1nc(Nc2ccc(C#N)cc2)nc2ccn(C)c12 [Example 33, 4-(4-(3′-(Dimethylamino)-3,5-dimethylbiphenyl-4-yloxy)-5-methyl-5H-pyrrolo [3,2-d]pyrimidin-2-ylamino) benzonitrile]
EC50 [1, 3]: > 10 nM
EC50 [2]: > 10 nM

Cc1cc(-c2ccsc2C#N)cc(C)c1Oc1nc(Nc2ccc(C#N)cc2)nc2ccn(C)c12 [Example 34, 3-(4-(2-(4-Cyanophenylamino)-5-methyl-5H-pyrrolo [3,2-d]pyrimidin-4-yloxy)-3,5-dimethylphenyl) thiophene-2-carbonitrile]
EC50 [1, 3]: 1 to 10 nM
EC50 [2]: 1 to 10 nM

Cc1cc(-c2c(C)noc2C)cc(C)c1Oc1nc(Nc2ccc(C#N)cc2)nc2ccn(C)c12 [Example 35, 4-(4-(4-(3,5-Dimethylisoxazol-4-yl)-2,6-dimethylphenoxy)-5-methyl-5H-pyrrolo[3,2-d]pyrimidin-2-ylamino) benzonitrile]
EC50 [1, 3]: 1 to 10 nM
EC50 [2]: 1 to 10 nM

Cc1cc(-c2cccc(C(=O)N(C)C)c2)cc(C)c1Oc1nc(Nc2ccc(C#N)cc2)nc2ccn(C)c12 [Example 36, 4′-(2-(4-Cyanophenylamino)-5-methyl-5H-pyrrolo[3,2-d]pyrimidin-4-yloxy)-N,N,3′,5′-tetramethylbiphenyl-3-carboxamide]
EC50 [1, 3]: > 10 nM
EC50 [2]: 1 to 10 nM

Cc1cc(-c2cnc(N)nc2)cc(C)c1Oc1nc(Nc2ccc(C#N)cc2)nc2ccn(C)c12 [Example 70, 4-(4-(4-(2-aminopyrimidin-5-yl)-2,6-dimethylbiphenoxy)-5-methyl-5H-pyrrolo[3,2-d]pyrimidin-2-ylamino) benzonitrile]
EC50 [1, 3]: 1 to 10 nM

Cc1cc(-c2cccc(S(N)(=O)=O)c2)cc(C)c1Oc1nc(Nc2ccc(C#N)cc2)nc2ccn(C)c12 [Example 71, 4′-(2-(4-cyanophenylamino)-5-methyl-5H-pyrrolo[3,2-d]pyrimidin-4-yloxy)-3′,5′-dimethylbiphenyl-3-sulfonamide]
EC50 [1, 3]: > 10 nM

COc1ccc(-c2cc(C)c(Oc3nc(Nc4ccc(C#N)cc4)nc4ccn(C)c34)c(C)c2)cn1 [Example 82, 4-(4-(4-(6-methoxypyridin-3-yl)-2,6-dimethylphenoxy)-5-methyl-5H-pyrrolo[3,2-d]pyrimidin-2-ylamino) benzonitrile]
EC50 [2]: > 10 nM

COc1cccc(C#N)c1-c1cc(C)c(Oc2nc(Nc3ccc(C#N)cc3)nc3ccn(C)c23)c(C)c1 [Example 83, 4′-(2-(4-cyanophenylamino)-5-methyl-5H-pyrrolo[3,2-d]pyrimidin-4-yloxy)-6-methoxy-3′,5′-dimethylbiphenyl-2-carbonitrile]
EC50 [2]: > 10 nM

Cc1cc(-c2ccc(C(=O)N3CCCC3)cc2)cc(C)c1Oc1nc(Nc2ccc(C#N)cc2)nc2ccn(C)c12 [Example 93, 4-(4-(3,5-dimethyl-4′-(pyrrolidine-1-carbonyl)biphenyl-4-yloxy)-5-methyl-5H-pyrrolo[3,2-d]pyrimidin-2-ylamino) benzonitrile]
EC50 [2]: > 10 nM

Cc1cc(-c2ccc(C(=O)O)cn2)cc(C)c1Oc1nc(Nc2ccc(C#N)cc2)nc2[nH]cnc12 [Example 121, 6-(4-(2-(4-cyanophenylamino)-9H-purin-6-yloxy)-3,5-dimethylphenyl)nicotinic acid]
EC50 [2]: > 10 nM

Cc1cc(-c2ccc(C(=O)N3CCC(C(N)=O)C3)cn2)cc(C)c1Oc1nc(Nc2ccc(C#N)cc2)nc2[nH]cnc12 (stereo not shown) [Example 122, 1-(6-(4-(2-(4-cyanophenylamino)-9H-purin-6-yloxy)-3,5-dimethylphenyl)nicotinoyl)pyrrolidine-3-carboxamide]
EC50 [2]: > 10 nM

Cc1cc(-c2ccc(C(N)=O)cn2)cc(C)c1Oc1nc(Nc2ccc(C#N)cc2)nc2[nH]cnc12 [Example 126, 6-(4-(2-(4-cyanophenylamino)-9H-purin-6-yloxy)-3,5-dimethylphenyl)nicotinamide]
EC50 [2]: 1 to 10 nM
